This note sets out measurements from patent US20160075689A1, “POLYMERASE, ENDONUCLEASE, AND HELICASE INHIBITORS AND METHODS OF USING THEREOF” (THE BOARD OF TRUSTEES OF THE UNIVERSITY OF ARKANSAS, priority 2013, published 2016).

Molecules are shown by their SMILES. Where “and” joins values, the source holds several entries; their conditions need not be identical. Identical values can stand only once.

One test concerns RNase A. In words: Ribonuclease A activity in NRK-52E cell extract. It counts as biochemical. Particulars: 0.1 μM and 10 μM. The method, then: (§1) As a follow up to Example 8, the effects of the EndoG inhibitors PNR-3-80 and PNR-3-82, at 0.1 μM and 10 μM each, on the activities of four other enzymes including RNase A, protease, LDH, and SOD in NRK-52E cell extract were examined. NRK-52E cells were grown to ˜80% confluence in […]. The medium was aspirated and the cells were rinsed with ice cold 1×PBS, pH 7.4. The cells were lysed in 50 mM Tris-HCl, pH 7.4, 150 mM NaCl, 1% Triton X-100 for 10 min on ice and then briefly sonicated. Cell debris was removed by centrifugation at 13,000×g for 10 min at 4° C. The supernatant was collected and stored at −80° C. until use. LDH, Protease, Superoxide dismutase (SOD), and Ribonuclease A (RNase A) activities were measured by using CytoTox 96® Non-Radioactive Cytotoxicity Assay kit (Promega, Madison, Wis.), Protease Fluorescent Detection kit (Sigma-Aldrich, Saint Louis, Mo.), SOD determination kit (Sigma-Aldrich, Saint Louis, Mo.), and Ribonuclease A Detection kit (Sigma-Aldrich, Saint Louis, Mo.), respectively, according to the manufacturer's instructions.

Test [1] addresses T1, EndoG (Homo sapiens, UniProt Q14249).
T1 sequence (Q14249 49-297): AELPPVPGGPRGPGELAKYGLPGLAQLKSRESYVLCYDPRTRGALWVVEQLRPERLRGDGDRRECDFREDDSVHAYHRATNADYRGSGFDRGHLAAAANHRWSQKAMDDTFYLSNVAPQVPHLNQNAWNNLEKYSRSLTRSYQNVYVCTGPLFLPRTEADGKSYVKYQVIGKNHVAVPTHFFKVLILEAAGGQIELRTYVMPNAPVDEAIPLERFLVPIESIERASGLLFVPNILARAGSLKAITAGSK
In words: Plasmid incision assay. In kind it is biochemical. Particulars: agarose gel, FIG. 9. As for the experimental part:
A reaction mixture was prepared containing 0.5 μg pECFP plasmid DNA, 2 mM CaCl2, 5 mM MgCl2, 10 mM Tris-HCl, pH 7.4, 0.5 mM dithiothreitol. The test compound [50 ng in DMSO (1 μl)] was added. Recombinant EndoG was then added to the final concentration of 200 ng/ml and the reaction was incubated for 1 h at 37° C. The reaction was terminated by adding 2 μl of 10 mM Tris-HCl, pH 7.4, 1% SDS, 25 mM EDTA, 7.2 mM bromophenol blue. The samples were run in 1% agarose gel in Tris-acetate-EDTA buffer (40 mM Tris, 20 mM acetic acid, 1 mM EDTA, pH 8), at 7 V/cm for 35 min, and DNA was stained with ethidium bromide. An EagleEye scanning densitometer (Stratagene, La Jolla, Calif.) was utilized to quantify the relative amount of endonuclease-treated plasmid DNA present in a covalently-closed circular (supercoiled) DNA, open circular DNA, or linear DNA, or in a digested form.

For the next test, the target named is T2, NS3 helicase (Hepatitis C virus genotype 1b, UniProt P26663).
T2 construct: analyze the helicase activity of NS3 helicase in the presence of the compounds; made in house
T2 sequence (P26663 1027-1657): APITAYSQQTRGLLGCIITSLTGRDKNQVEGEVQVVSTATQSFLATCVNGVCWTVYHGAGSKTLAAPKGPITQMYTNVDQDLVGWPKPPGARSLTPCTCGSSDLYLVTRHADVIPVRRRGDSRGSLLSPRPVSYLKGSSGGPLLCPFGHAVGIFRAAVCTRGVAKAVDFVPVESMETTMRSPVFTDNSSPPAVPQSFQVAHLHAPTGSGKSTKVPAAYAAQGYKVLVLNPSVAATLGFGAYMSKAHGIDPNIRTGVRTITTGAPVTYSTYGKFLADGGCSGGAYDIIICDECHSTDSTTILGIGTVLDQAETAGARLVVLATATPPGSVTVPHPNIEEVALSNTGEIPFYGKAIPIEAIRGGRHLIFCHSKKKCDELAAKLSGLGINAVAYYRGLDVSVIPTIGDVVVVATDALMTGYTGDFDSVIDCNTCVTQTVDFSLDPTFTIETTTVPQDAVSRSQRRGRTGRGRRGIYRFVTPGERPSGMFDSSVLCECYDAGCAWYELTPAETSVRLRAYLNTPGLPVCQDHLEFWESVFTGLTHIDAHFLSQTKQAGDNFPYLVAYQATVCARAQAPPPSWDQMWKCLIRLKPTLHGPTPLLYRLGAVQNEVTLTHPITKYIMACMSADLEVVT
The test is described as follows: Gel-based helicase assay. In kind it is biochemical, HCV. Particulars: standard helicase assay. The method, then:
Benchtop unwinding assays were performed to analyze the helicase activity of NS3 helicase in the presence of the compounds. The unwinding reaction was initiated by mixing the right (N53, compound, assay buffer) and left (radiolabeled substrate, ATP, assay buffer) reactions, which was then quenched. The ssDNA product formed over time is separated from dsDNA substrate by 20% native PAGE. The ratio of dsDNA substrate to ssDNA product is quantified using ImageQuant and the fraction of substrate unwound at each time-point is plotted as a function of time using Kaleidagraph software.

Test [2] deals with T1, EndoG. In words: High-throughput EndoG screening assay. It counts as biochemical. The method, then: A reaction mixture was prepared in each well of a white 96-well plate (Costar, Corning, N.Y.) as follows: 0.25 μM Cy5.5-labeled oligonucleotide (described in US provisional patent filed Oct. 19, 2012, Ser. No. 61/716,097) 0.3 mM MgCl2, 10 mM Tris-HCl, pH 7.4, 1 μl DMSO containing 5 or 50 ng of test compound, and nuclease-free water for a total reaction volume of 100 μl. The background (negative control) and uninhibited EndoG samples were measured using DMSO only, or DMSO containing recombinant EndoG (4 μg/ml), respectively. After addition of EndoG, fluorescence intensity was kinetically measured on a Bio-Tek Synergy 4.0 plate reader at 37° C. and mean velocity (mRFU/min) within 20 min was automatically calculated by the plate reader. The background was subtracted prior to the calculation of EndoG activity (%). The percent of EndoG activity was calculated from the mean velocity of a compound divided by the mean velocity of DMSO with recombinant EndoG, and the obtained value multiplied by 100.

A further test has as its system SOD. The test is described as follows: SOD activity in NRK-52E cell extract. In kind it is biochemical. Particulars: 0.1 μM and 10 μM. The method, then:
as §1

The test system of test [3] is EndoG-expressing PC3 cells. In words: Cytoprotection against Docetaxel-induced cell death, LDH release and TUNEL assays. In kind it is cell-based, human. Particulars: Docetaxel 80 μM, inhibitor 50 μM. As for the experimental part:
Docetaxel is an anti-cancer drug used to treat prostate cancer. Human invasive prostate cancer PC3 cells are known to be resistant to anticancer drugs. […] The resulting EndoG-expressing PC3 cells were exposed with Docetaxel (80 μM) in the absence or presence of the inhibitors, PNR-3-80 or PNR-3-82 (50 μM each). The cell death was measured by using two methods, LDH release assay and TUNEL assay. […]
(LDH in the medium is a marker of cell lysis.)

In another test the test system is LDH. The test is described as follows: LDH activity in NRK-52E cell extract. Particulars: 0.1 μM and 10 μM. In kind it is biochemical. As for the experimental part:
as §1

Another test has as its system protease. In words: Protease activity in NRK-52E cell extract. In kind it is biochemical. Particulars: 0.1 μM and 10 μM. As for the experimental part:
as §1

For the compound `COc1ccc2c(c1)c(C=C1C(=O)NC(=S)NC1=O)cn2C(=O)c1ccc2ccccc2c1` [PNR-3-82], the “RNase A activity” value in the test on RNase A is recorded as “none of the two tested compounds had any inhibiting activity”. For the same compound, at EndoG [1], the “protection of supercoiled plasmid DNA from degradation by EndoG” value is listed as “significantly protected the plasmid DNA from degradation”. Moreover, on NS3 helicase, the “NS3 helicase activity, gel electrophoresis” value is on record as “confirmed the inhibition”. Besides, at EndoG [2] (20 min, compound 1 μM, read-out: % EndoG activity in the presence of the compound), the remaining activity at 1 µM is 21.8%. In addition, the IC50 – broadly, the point on the concentration scale where inhibition reaches its midpoint – at EndoG [2] (IC50 against EndoG, EndoG screening assay) is 613 nM and 610 nM. Also, the SOD activity entry in the test on SOD was “none of the two tested compounds had any inhibiting activity”. Besides, the “cytoprotection against Docetaxel-induced cell death” value in test [3] is listed as “cytoprotective”. For the same compound, the LDH activity result in the test on LDH is listed as “none of the two tested compounds had any inhibiting activity”. In the test with protease, the protease activity result is given as “none of the two tested compounds had any inhibiting activity”.
